Results reported in patent US20190255073A1, “ESTERS OF 3-POLYAMINE DERIVATIVES OF BILE ACIDS FOR THE TREATMENT OF INFECTIONS” (VIRBAC, priority 2016, published 2019).
Values after ≈ are worked out from the molar mass of the structure shown.

How the values were obtained:
E. faecalis ATCC29212 = experiment: MIC determination by microplate dilution, E. faecalis human strain; format: cell-based, Enterococcus faecalis; details: Enterococcus faecalis, ATCC29212, Gram-positive, Mueller-Hinton medium, 24 h, 37° C.
In short: (§1)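 Twofold dilution series of compounds (stock 5 mg/mL, DMSO/methanol 50/50) in Mueller-Hinton medium, seeded with bacteria at OD 0.01 from 24 h, 37 °C precultures. After 24 h at 37 °C under humid atmosphere, MIC derived from OD at 620 nm; run in duplicate.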

P. aeruginosa ATCC27853 = experiment: MIC determination by microplate dilution, P. aeruginosa human strain; format: cell-based, Pseudomonas aeruginosa; details: Pseudomonas aeruginosa, ATCC27853, Gram-negative, Mueller-Hinton medium, 24 h, 37° C.
In short: as §1

P. aeruginosa (1051575) [1] = experiment: Potentiation of ampicillin activity; format: cell-based, Pseudomonas aeruginosa; details: concentration of compound required with ampicillin 4 μg/mL
Description: (§2) This method requires the use of a 96-well plate: 100 μL of a liquid culture medium are placed in each well and then seeded with the microbial suspension prepared previously. The required volume to be seeded is calculated for an OD of 0.01, which corresponds to about 5×10^6 bacteria in each well. In this plate, the first line corresponds to a negative control (200 μL of sterile culture medium in each well), the second line corresponds to a positive control (100 μL of sterile culture medium+100 μL of the bacterial suspension), and the third line contains 192 μL of culture medium; 8 μL of compound of formula (I) to be tested are placed in each well. […] 92 μL of bacterial suspension are then added to lines 3 to 8. […] After 24 hours of incubation at 37° C., 40 μL of nitro tetrazolium iodide are added to each well to reveal the presence of live bacteria by staining the medium pink.
(§3) The procedure is identical to that indicated in Example 5 above. […]
(§4) The results are given in table V. They indicate the concentration of compound of formula (I) required to be able to restore the activity of the antibiotic under consideration.

P. aeruginosa (1051575) [2] = experiment: Potentiation of chloramphenicol activity; format: cell-based, Pseudomonas aeruginosa
Description: as §2, §3, §4

C. albicans = experiment: Antifungal activity, cascade microdilution, C. albicans; format: cell-based, Candida albicans; details: Candida albicans, 24 h, read-out: IC50 (μg/mL) C. albicans

Compound: CC(C)OC(=O)CC[C@@H](C)[C@H]1CCC2C3C(CC[C@@]21C)[C@@]1(C)CC[C@H](NCCCN(CCCN)CCCN)CC1C[C@H]3O (stereo partly drawn) [(39), isopropyl 3β-(tris(3-aminopropyl)amine)chenodeoxycholate]
- MIC (E. faecalis ATCC29212): 14 µg/mL (≈ 23.1 µM)
- MIC (P. aeruginosa ATCC27853): 28 µg/mL (≈ 46.3 µM)
- MIC P. aeruginosa (1051575), compound + ampicillin (P. aeruginosa (1051575) [1]): 30 µg/mL
- MIC P. aeruginosa (1051575), compound + chloramphenicol (P. aeruginosa (1051575) [2]; concentration of compound required with chloramphenicol 2 μg/mL): 4 µg/mL
- MIC P. aeruginosa (1051575), compound + chloramphenicol (P. aeruginosa (1051575) [2]; concentration of compound required with chloramphenicol 4 μg/mL): 2 µg/mL
- IC50 (C. albicans): 4 µg/mL (≈ 6.61 µM)
